Values quoted from earlier work as cited in patent publication US20220380769A1 (priority 2020, published 2022).

Tested on: avian H5N1 influenza virus clades
Settings: in vivo; cited from earlier work

rIn.r(C12U)n [Rintatolimod]
protection from lethal challenge doses of three avian H5N1 influenza virus clades: able to protect
